Patent US20180280528A1, “ANTIFOLATE CONJUGATES FOR TREATING INFLAMMATION” (ENDOCYTE, INC., priority 2015, published 2018)

Experiments:
[1] = molecular target: T1, human folate receptor (FR)-α (Homo sapiens, UniProt P15328); test: Relative affinity assay (displacement of 3H-folic acid on KB cells); type: binding; details: 100 nM 3H-folic acid, 1 h at 37° C., normalized against 1 for FA
T1 construct: endogenous in cells; host or cells: KB cells (human HeLa carcinoma contaminant)
Procedure: Cell lines utilized to evaluate EC2319 in in-vitro studies were as follows: KB human HeLa carcinoma contaminant expressing the human folate receptor (FR)-α, RAW264.7 mouse macrophage-derived tumor cells expressing a murine FR, THP-1-FRβ human monocytic leukemia engineered to express the human FR-β. All cells were grown in a folate-free RPMI1640 medium (Gibco BRL) (FFRPMI) containing 10% heat-inactivated fetal calf serum (HIFCS) and antibiotics, and maintained under a 5% CO2 atmosphere using standard cell culture techniques.
EC2319 FR-binding affinity was determined in a relative affinity assay using KB cells as the source of FR. Briefly, KB cells (1×10^5 cells/well) were plated in 24-well plates at 18 to 24 h before use. The cells were then incubated for 1 h at 37° C. with 100 nM of ^3H-folic acid (Moravek Inc.) plus a series of 3.16-fold dilutions of EC2319 or FA at 0.01-31.6 μM in triplicates. At the end of incubation, the cells were washed 3 times with a phosphate-buffered saline (PBS, pH 7.4) and lysed for 5 min at room temperature in 0.5 mL of 0.25 N NaOH. 0.45 mL of the cell lysate was taken from each well and counted in a scintillation counter. […] See result in FIG. 1.

human THP-1-FRβ cells = test: Cell viability (XTT) assay, THP-1-FRβ; type: cell-based
Procedure: (§1) All cells were grown in a folate-free RPMI1640 medium (Gibco BRL) (FFRPMI) containing 10% heat-inactivated fetal calf serum (HIFCS) and antibiotics, and maintained under a 5% CO2 atmosphere using standard cell culture techniques.
(§2) After a 2 h exposure, the drug-containing media were replaced and the cells were allowed to incubate further for 72 h. The cell viability was assessed by adding XTT (2,3-bis(2-methoxy-4-nitro-5-sulfo-phenyl)-2H-tetrazolium-5-carboxanilide) to the culture medium for 3 h following the manufacturer's instructions. All results were expressed as % absorbance (minus background) relative to the untreated control cells. See results in FIG. 2A and FIG. 2B.
(§3) Importantly, the observed anti-proliferative effect was 100% competable in the presence of excess FA, indicating a FR-specific mode of action.

[2] = tested on: mouse RAW264.7 macrophage cells; test: Cell viability (XTT) assay, RAW264.7; type: cell-based
Procedure: as §1, §2, §3

[3] = 2 h exposure, 72 h chase, XTT, read-out: relative IC50, inhibition of cell proliferation

T1 sequence (P15328 25-234): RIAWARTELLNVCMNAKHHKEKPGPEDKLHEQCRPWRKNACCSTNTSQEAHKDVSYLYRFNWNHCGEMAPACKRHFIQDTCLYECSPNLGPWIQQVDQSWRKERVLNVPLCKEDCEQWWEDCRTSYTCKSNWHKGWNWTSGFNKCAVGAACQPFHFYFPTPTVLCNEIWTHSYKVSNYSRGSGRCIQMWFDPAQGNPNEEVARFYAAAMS

## COC(=O)[C@H](CSSC(C)(C)[C@H](NC(=O)[C@H](CCC(=O)NC[C@H](O)[C@@H](O)[C@H](O)[C@H](O)CO)NC(=O)[C@H](CCC(=O)O)NC(=O)[C@H](CCC(=O)NC[C@H](O)[C@@H](O)[C@H](O)[C@H](O)CO)NC(=O)[C@H](CCC(=O)O)NC(=O)[C@H](CCC(=O)NC[C@H](O)[C@@H](O)[C@H](O)[C@H](O)CO)NC(=O)CC[C@H](NC(=O)c1ccc(NCc2cnc3nc(N)[nH]c(=O)c3n2)cc1)C(=O)O)C(=O)O)NC(=O)CC[C@H](NC(=O)c1ccc(NCc2cnc3nc(N)nc(N)c3n2)cc1)C(=O)O [EC2319]
[1]
  relative affinity: 0.493
Human THP-1-FRβ cells
  concentrations with cytostatic effect: ≥ 100 nM
Human THP-1-FRβ cells; 100-fold excess FA
  anti-proliferative effect competable in the presence of excess FA: 100%
Human THP-1-FRβ cells; [3]
  IC50: ~8.7 nM
[2]
  concentrations with cytostatic effect: ≥ 10 nM
[2]; 100-fold excess FA
  anti-proliferative effect competable in the presence of excess FA: 100%
[2]; [3]
  IC50: ~2.9 nM
